What was measured:
[1] = Body weight gain-inhibiting effect in normal SD rats; format: in vivo; settings: Rattus norvegicus, po, 100 mg/kg orally every day for 5 days or 2 weeks, vs control group, read-out: Rate of inhibition of body weight gain (%)
Description: (§1) 8-week-old SD rats (Japan Charles River: average body weight of about 350 g) were used. 5% aqueous gum arabic suspension, which was prepared such that the dosage of a compound of the present invention was 100 mg/kg body weight, was orally administered to the experimental group in an amount of 5 ml/kg body weight. 5% aqueous gum arabic suspension (not containing any compounds of the present invention) was orally administered to the control group in an amount of 5 ml/kg body weight. The rats were grouped according to their body weight at 8 weeks of age such that each group had 5 rats. The test compounds were orally administered every day at a fixed time for 5 days or 2 weeks, starting when the rats were 9 weeks old. Body weight was regularly measured during the period of oral administration, and the body weight gain-inhibiting effect was observed. 4 hours after the final administration of the test compound, blood was collected from the vein, plasma was separated from the collected blood, and blood biochemical examinations (triglyceride, HDL-cholesterol) were carried out.
The rate of inhibition of body weight gain (%) was calculated from the measured body weights of rats in the control group and the experimental group, according to the following formula. […] Rate of inhibition of body weight gain (%)=[(mean value of the control group)−(mean value of the experimental group)]/(mean value of the control group)×100

[2] = Lipid-improving action in SD rats: blood biochemical examinations (triglyceride, HDL-cholesterol); format: in vivo; settings: Rattus norvegicus, po, 100 mg/kg orally every day for 5 days or 2 weeks, plasma 4 hours after final administration, vs control group, read-out: Rate of increase in HDL-cholesterol levels (%)
Description: as §1
Blood biochemical examinations of rats in the control group and the experimental group were performed. The rates of change (%) were calculated according to the following formulae from the measured values obtained from the blood biochemical examinations. […] Rate of decrease in triglyceride levels (%)=[(mean value of the control group)−(mean value of the experimental group)]/(mean value of the control group)×100 Rate of increase in HDL-cholesterol levels (%)=[(mean value of the experimental group)−(mean value of the control group)]/(mean value of the control group)×100

[3] = target: T1, LPL (lipoprotein lipase) (Homo sapiens, UniProt P06858); test: Confirmation test of LPL activation effect in human skeletal muscle cells; format: cell-based; settings: 8 hours exposure, vs control group
T1 construct: endogenous in cells; host or cells: human skeletal muscle myoblasts, differentiated
T1 sequence (P06858 28-475): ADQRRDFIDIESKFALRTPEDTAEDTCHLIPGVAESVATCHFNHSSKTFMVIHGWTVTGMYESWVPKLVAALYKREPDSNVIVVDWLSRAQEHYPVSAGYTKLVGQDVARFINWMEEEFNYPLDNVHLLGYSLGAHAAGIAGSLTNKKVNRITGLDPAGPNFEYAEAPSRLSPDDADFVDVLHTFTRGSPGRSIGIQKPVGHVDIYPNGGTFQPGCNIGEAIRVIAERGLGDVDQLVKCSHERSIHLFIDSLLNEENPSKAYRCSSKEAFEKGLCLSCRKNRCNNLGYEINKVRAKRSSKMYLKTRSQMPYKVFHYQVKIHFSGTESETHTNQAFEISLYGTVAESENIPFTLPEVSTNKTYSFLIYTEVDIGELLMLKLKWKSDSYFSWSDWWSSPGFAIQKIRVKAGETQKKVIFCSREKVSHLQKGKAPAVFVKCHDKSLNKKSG
Description: Human skeletal muscle cells (human skeletal muscle myoblasts) or mouse skeletal muscle cells (C2C12 cells) that were seeded onto plates, cultured, and differentiated were exposed to a 0.3% dimethyl sulfoxide-containing culture medium in which the compound of the present invention was dissolved (concentration: 10 μM or 30 μM). The medium was removed 8 hours after exposure, 10 mM of Tris-HCl buffer (150 mM NaCl, 10 μ/mL; containing heparin sodium) was added to the cells, and the cells were incubated at 37° C. in the presence of 5% CO2 for 10 minutes. LPL activity in the supernatant was measured using an LPL activity assay kit (made by Roar Biomedical Inc.). LPL activity was evaluated based on the increase in fluorescence intensity 10 to 70 minutes after mixing the supernatant with the LPL substrate. The mean value of the increase in fluorescence intensity of the cells exposed to a 0.3% dimethyl sulfoxide-containing culture medium […] was used as mean value of the control group. Note that the compounds of Examples 18, 19, 32, 45 and 57 were tested using human skeletal muscle cells, and other compounds were tested using mouse skeletal muscle cells. The rate of increase (%) was calculated from the measured values of LPL activity in the control group and the experimental group, according to the following formula. Rate of increase in LPL activity (%)=[(mean value of the experimental group)−(mean value of the control group)]/(mean value of the control group)×100

[4] = target: T2, LPL (lipoprotein lipase) (Mus musculus, UniProt P11152); test: Confirmation test of LPL activation effect in mouse skeletal muscle cells (C2C12 cells); format: cell-based; settings: 8 hours exposure, vs control group
T2 construct: endogenous in cells; host or cells: C2C12 cells, differentiated
T2 sequence (P11152 28-474): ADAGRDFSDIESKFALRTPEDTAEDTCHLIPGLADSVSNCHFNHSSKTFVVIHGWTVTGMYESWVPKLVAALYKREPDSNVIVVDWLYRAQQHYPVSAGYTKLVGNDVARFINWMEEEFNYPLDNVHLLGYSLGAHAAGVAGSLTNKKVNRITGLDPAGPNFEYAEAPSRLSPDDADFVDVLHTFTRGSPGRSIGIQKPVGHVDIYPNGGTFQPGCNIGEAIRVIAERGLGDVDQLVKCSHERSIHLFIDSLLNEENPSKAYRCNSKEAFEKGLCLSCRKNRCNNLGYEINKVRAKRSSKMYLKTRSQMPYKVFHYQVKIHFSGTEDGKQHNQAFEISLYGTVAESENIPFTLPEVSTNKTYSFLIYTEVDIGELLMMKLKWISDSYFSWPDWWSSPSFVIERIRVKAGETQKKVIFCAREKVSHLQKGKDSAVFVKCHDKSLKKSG
Summary of the method: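 Differentiated human skeletal muscle myoblasts or mouse C2C12 cells were exposed to compound at 10 μM or 30 μM in 0.3% DMSO medium for 8 h, then LPL was released with heparin-containing Tris-HCl buffer (10 min, 37° C). Supernatant LPL activity was taken as the fluorescence increase 10–70 min after adding substrate; % increase is calculated versus the DMSO control mean.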

[5] = Confirmation test of anti-obesity action in dietary-obese mice; format: in vivo; settings: AKR/J mice on high-fat diet (60% kcal fat), 20 mg/kg orally every day for 4 weeks, vs control group
Description: AKR/J mice were used. These mice were fed a high-fat diet with 60% kcal fat, and a model of dietary obesity was developed. 5% aqueous gum arabic suspension, which was prepared such that the dosage of a compound of the present invention was 20 mg/kg body weight, was orally administered to the experimental group of obese mice in an amount of 5 ml/kg body weight. […] The mice were grouped according to body weight. The test suspension was administered everyday at a fixed time for 4 weeks. Body weight was measured during the period of oral administration, and the body weight gain-inhibiting effect was confirmed. The rate of body weight reduction (%) was calculated from the measured body weights of mice in the control group and the experimental group, according to the following formula. […] Rate of body weight reduction (%)=[(mean value of the control group)−(mean value of the experimental group)]/(mean value of the control group)×100

SMILES	melting point [°C]	Rate of increase in LPL activity ([3]; amount of addition 10 μM) [%]	Rate of increase in LPL activity ([3]; amount of addition 30 μM) [%]	Rate of increase in LPL activity ([4]; amount of addition 10 μM) [%]	Rate of increase in LPL activity ([4]; amount of addition 30 μM) [%]	inhibition in vivo at 100 mg/kg [1] [%]	change in vivo at 100 mg/kg [2] [%]	Rate of body weight reduction (%) [5] [%]
COc1cc(OCc2ccc(Br)cc2F)ccc1-c1c[nH]c(-c2cccs2)n1.Cl [Example 23]	249 to 253	–	–	40	95	–	–	13
COc1cc(OCc2ccc(C#N)cc2)ccc1-c1c[nH]c(-c2ccc(F)cc2)n1.Cl [Example 45]	189 to 191	23	32	–	–	12	27	11
COc1cc(OCc2ccc(Br)cc2F)ccc1-c1c[nH]c(-c2ccc(F)cc2)n1.Cl [Example 57]	> 250	19	40	–	–	14	184	17
COc1cc(-c2c[nH]c(-c3cccs3)n2)ccc1OCc1ccc(Br)cc1F [Example 67]	177 to 179	–	–	22	34	7	15	–
COc1cc(OCc2ccc(Cl)cc2)ccc1-c1c[nH]c(-c2ccsc2)n1.Cl [Example 70]	238 to 241	–	–	22	87	14	34	–
COc1cc(OCc2ccc(C#N)cc2)ccc1-c1c[nH]c(-c2cccc(C(F)(F)F)c2)n1.Cl [Example 74]	248 to 250	–	–	10	55	6	64	–
COc1cc(OCc2ccc(Br)cc2F)ccc1-c1c[nH]c(-c2ccc(C)cc2)n1 [Example 84]	160 to 162	–	–	53	97	8	187	–

More lines, main results first:

melting point [°C]	Rate of increase in LPL activity ([3]; amount of addition 10 μM) [%]	Rate of increase in LPL activity ([3]; amount of addition 30 μM) [%]	Rate of increase in LPL activity ([4]; amount of addition 10 μM) [%]	Rate of increase in LPL activity ([4]; amount of addition 30 μM) [%]	SMILES	inhibition in vivo at 100 mg/kg [1] [%]	change in vivo at 100 mg/kg [2] [%]	Rate of body weight reduction (%) [5] [%]
167 to 170	23	23	–	–	COc1cc(OCc2ccc(Br)cc2F)ccc1-c1c[nH]c(-c2ccc(C(F)(F)F)cc2)n1 [Example 18]	13	171	–
158 to 162	24	28	–	–	COc1cc(OCc2ccc(Cl)cc2)ccc1-c1c[nH]c(-c2ccc(C(F)(F)F)cc2)n1 [Example 19]	11	99	–
158 to 159	22	57	–	–	COc1cc(-c2c[nH]c(-c3ccc(C(F)(F)F)cc3)n2)ccc1OCc1ccc(Cl)cc1 [Example 32]	8	16	11
228 to 233	–	–	–	–	COc1cc(-c2c[nH]c(-c3ccc(F)cc3)n2)ccc1OCc1ccc(Br)cc1F.Cl [Example 52]	6	36	–
